Assay results reported in patent US20080075796A1, “Compositions and Methods for Controlling Insects” (TyraTech, Inc., priority 2003, published 2008).

Columns and labels:
Type in all cases: in vivo
[1] = tested on: head lice Pediculus humanus capitus; test: Pesticidal effect on head lice (LT100); details: about 1 ml in dish, about 10 adult head lice
Experimental: (§1) Live adult head lice Pediculus humanus capitus are collected from female and male children between the age of about 4 and 11 living in the Karmos area, Alexandria, Egypt. The insects are collected using fine-toothed louse detector comb and pooled together. The collected lice are kept in dishes and used in the studies within about 30 minutes of their collection.
(§2) Various concentrations of the compositions being tested are prepared in water To allow the pesticidal effect of these compositions to be compared to that of a commercially available lice-killing agent, ivermectin, is dissolved in water. About 1 ml of each concentration of the compositions are applied to a dish, about 1 ml of the ivermectin solution is applied to a dish, and about 1 ml of water is applied to a control dish. About 10 adult head lice are introduced to each dish.
(§3) Treated and control dishes are kept under continuous observation and LT100 is observed. LT refers to the time required to kill a given percentage of insects; thus, LT100 refers to the time required to kill 100% of the lice. Head lice is considered dead if no response to a hard object is found.

Carpenter ants [2] = test: Repellent effect on carpenter ants (treated filter paper)
Experimental: (§4) Adult insect are randomly selected for testing the repellent effect of compositions and are not individually marked. About 5 insects per replicate are used. About 3 replicates are used for each treatment. Untreated control tests are included with only solvent (acetone) application to an equal sized population/replications, held under identical conditions. A filter paper (about 80 cm^2) is treated with the composition (about 100 mg in […] acetone). After about 3 min of air drying, the filter paper is placed in a dish and repellency against insects is performed. Insects are released to the dish, one insect at a time at the far end of the dish. Using one or more stopwatches, the time spent on either the filter paper or the untreated surface of the dish is recorded up to about 300 seconds. Repellency ratio (RR) is calculated as follows: RR=[(time on control surface−time on treated surface)/total time of test]. If RR>0 then the composition is considered to have a repellant effect, that is to say, an effect, wherein more insects are repelled away from treated surface than the control surface; if RR<0 then the composition is considered not to have a repellant effect.
The repellent effect of various plant essential oils is tested by treating a filter paper with the test oils. After about five minutes at room temperature, the paper is placed in a dish and ants are introduced one at a time. The repellency is determined as described above, in Example 14. Oils are tested alone. Additionally, oils are mixed to form compositions, which are then tested.
For purposes of comparison to the repellent effect of various compositions made of various plant essential oils, the repellency of an insect control agent, the commercial repellent 29% DEET, which may be purchased under the name, REPEL® (Wisconsin Pharmacal Company, Inc, Jackson, Wyo.), is measured against Carpenter ants by treating a filter paper with the 29% DEET. After about five minutes at room temperature, the paper is placed in a dish and ants are introduced one at a time. The repellency is determined as described above, in Example 14.
The repellent effect of commercial repellent DEET and various plant essential oils is tested by treating a filter paper with the test oils. After about five minutes at room temperature, the paper is placed in a dish and ants are introduced one at a time. The repellency is determined as described above, in Example 14. Oils are tested alone. Additionally, oils are mixed to form compositions, which are then tested.

red ants = test: Repellent effect on red ants (visits to treated paper disk); details: for number of trips by red ants to treated paper disk: 100%
Experimental: Repellent effect of various compositions containing plant essential oils on red ants is tested in the following manner. A paper disk is treated with about 200 μl of each composition and placed in a dish. An untreated paper disk is placed in a control dish. Also, a paper disk is treated with about 200 μl 100% DEET and placed in a dish to compare the repellant effect of the compositions to that of DEET. Red ants are introduced into each dish. Insect behavior and number of visits to the treated paper disk are monitored for about 5 minutes. The number of visits by a red ant to the paper disk is recorded.
Residuality, with regard to pesticidal effect and repellent effect, is tested by treating a paper disk with the composition being tested, keeping the treated paper disk under laboratory conditions for a predetermined period of time (e.g., 0 min, 6 hours, 1 day, 3 days, 5 days, 7 days), and exposing red ants to the treated paper disk in the above described manners.

Carpenter ants [3] = test: Repellent effect on carpenter ants (treated filter paper); details: DEET in concentrations of about 5 to 10%
Experimental: as §4
The repellent effect of various plant essential oils is tested by treating a filter paper with the test oils. […] The repellency is determined as described above, in Example 14. […]

[4] = tested on: head lice Pediculus humanus capitus; test: Pesticidal effect on head lice; details: time to kill 100% of the lice, dissolved in water
Experimental: as §1, §2, §3

## ivermectin [listing 1 of 2 here]
[1]
  LT100 (time required to kill 100% of the lice): 5 min

## CCN(CC)C(=O)c1cccc(C)c1 [DEET]
Carpenter ants [2]; 5% DEET, Day 0
  Sec on T: 282 (10) Sec
Carpenter ants [2]; 10% DEET, Day 0
  Sec on T: 260 (6) Sec
Carpenter ants [2]; 29% DEET (REPEL), Day 0
  sec. on T surface: 02.4 s
Carpenter ants [2]; DEET about 5 to 10%, in words
  repellency: no signs of repellency
Red ants; 0 min after treatment of disk
  number of trips by the red ants to the treated paper disks: 0
Red ants; 100% DEET, in words
  residuality of repellent effect: begins to loose potency after 1 day
Red ants; 0 min after treatment, about 5 minutes observation
  number of trips by red ants to treated paper disk: 0
Red ants; 6 hours after treatment
  number of trips by red ants to treated paper disk: 0
Red ants; 1 day after treatment
  number of trips by red ants to treated paper disk: 1
Red ants; 3 days after treatment
  number of trips by red ants to treated paper disk: 2
Red ants; 5 days after treatment
  number of trips by red ants to treated paper disk: 2
Red ants; 7 days after treatment
  number of trips by red ants to treated paper disk: 2
Red ants; 6 hours after treatment of disk
  number of trips by the red ants to the treated paper disks: 0
Red ants; 1 day after treatment of disk
  number of trips by the red ants to the treated paper disks: 1
Red ants; 3 days after treatment of disk
  number of trips by the red ants to the treated paper disks: 2
Red ants; 5 days after treatment of disk
  number of trips by the red ants to the treated paper disks: 2
Red ants; 7 days after treatment of disk
  number of trips by the red ants to the treated paper disks: 2
Carpenter ants [3]
  repellency: no signs of repellency

## ivermectin [listing 2 of 2 here]
[4]
  LT100: 5 min
